EC50 data for 20 compounds are collected here from patent US20170210751A1, “PRMT5 INHIBITORS AND USES THEREOF” (Epizyme, Inc., priority 2014, published 2017).

Broadly, the EC50 is the concentration giving half of the maximal effect.

The assay concerns Symmetric di-Methyl Arginine in Z-138 cells. The assay is described as follows: Z-138 Methylation Assay (In Cell Western for symmetric di-methyl arginine). The following applies: Homo sapiens, 96 hours incubation, symmetric di-methyl arginine normalised to DNA content, read-out: ICW EC50. Format: cell-based. The method in brief: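 Z-138 cells were treated with compound for 96 h at 37 °C, then fixed on poly-D-lysine plates. Symmetric di-methyl arginine was detected by In-Cell Western (800 nm) with DRAQ5 DNA normalisation (700 nm). Percent inhibition used DMSO and 3 μM reference-compound controls; IC50 curves came from triplicate wells.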
In the case of `CC(=O)N1CC(Nc2cc(C(=O)NC[C@H](O)CN3CCc4[nH]ncc4C3)ncn2)C1` [Compound 3-23], the EC50 was above 1000 nM.
For the compound `Cc1nc2c([nH]1)CCN(C[C@@H](O)CNC(=O)c1cc(NC3COC3)ncn1)C2` [Compound 3-41], the EC50 was above 1000 nM.
Turning to `O=C(NC[C@H](O)CN1CCc2ncsc2C1)c1cc(NC2COC2)ncn1` [Compound 1-16, (S)—N-(3-(6,7-dihydrothiazolo[5,4-c]pyridin-5(4H)-yl)-2-hydroxypropyl)-6-(oxetan-3-ylamino)pyrimidine-4-carboxamide], the concentration giving a half-maximal response (EC50) was above 1000 nM.
As for `CC(=O)N1CCC(Nc2cc(C(=O)NC[C@H](O)CN3CCc4cn[nH]c4C3)ccn2)CC1` [Compound 3-50], the EC50 is above 1000 nM.
Turning to `O=C(COc1cccc2cccnc12)NCC(O)CN1CCc2sccc2C1` (centres unmarked) [Compound 1-4, N-(2-hydroxy-3-{4H,5H,6H,7H-thieno[3,2-c]pyridin-5-yl}propyl)-2-(quinolin-8-yloxy)acetamide], the EC50 was below 100 nM.
In the case of `CC(=O)N1CCC(Nc2cc(C(=O)NC[C@H](O)CN3CCc4nc(N)sc4C3)ccn2)CC1` [Compound 1-35] it was above 1000 nM; in that of `CC(=O)N1CC(Nc2cc(C(=O)NC[C@H](O)CN3CCCc4c3cnn4C)ncn2)C1` [Compound 3-46], above 1000 nM.
For `Cn1ncc2c1CCCN2C[C@@H](O)CNC(=O)c1cc(NC2COC2)ncn1` [Compound 3-40], the EC50 was above 1000 nM.
In the case of `CC(=O)N1CC(Nc2cc(C(=O)NC[C@H](O)CN3CCc4sc(C)nc4C3)ncn2)C1` [Compound 1-27] it was above 1000 nM; in that of `CC(=O)N1CCC(Nc2cc(C(=O)NC[C@H](O)CN3CCc4nc(C)sc4C3)ncn2)CC1` [Compound 1-7, (S)-6-((1-acetylpiperidin-4-yl)amino)-N-(2-hydroxy-3-(2-methyl-6,7-dihydrothiazolo[5,4-c]pyridin-5(4H)-yl)propyl)pyrimidine-4-carboxamide], above 1000 nM; in that of `Cc1nc2c(s1)CN(C[C@@H](O)CNC(=O)c1cc(NC3COC3)ncn1)CC2` [Compound 1-8, (S)—N-(2-hydroxy-3-(2-methyl-6,7-dihydrothiazolo[5,4-c]pyridin-5(4H)-yl)propyl)-6-(oxetan-3-ylamino)pyrimidine-4-carboxamide], above 1000 nM.
Consider `CC(=O)N1CCC(Nc2cc(C(=O)NC[C@H](O)CN3CCc4ccncc4C3)ccn2)CC1` [Compound 2-19, (S)-2-((1-acetylpiperidin-4-yl)amino)-N-(3-(3,4-dihydro-2,7-naphthyridin-2(1H)-yl)-2-hydroxypropyl)isonicotinamide], for which the EC50 is above 1000 nM.
For `CC(=O)N1CC(Nc2cc(C(=O)NC[C@H](O)CN3CCc4sc(N)nc4C3)ncn2)C1` [Compound 1-28], the EC50 was above 1000 nM.
In the case of `CC(=O)N1CC(Nc2cc(C(=O)NC[C@H](O)CN3CCc4[nH]c(C)nc4C3)ncn2)C1` [Compound 3-47] it was above 1000 nM; in that of `O=C(COc1cccc2cccnc12)NCC(O)CN1CCc2cnccc2C1` (centres unmarked) [Compound 2-7, N-[2-hydroxy-3-(1,2,3,4-tetrahydro-2,6-naphthyridin-2-yl)propyl]-2-(quinolin-8-yloxy)acetamide], above 1000 nM; in that of `CC(=O)N1CCC(Nc2cc(C(=O)NC[C@H](O)CN3CCc4nc(N)sc4C3)ncn2)CC1` [Compound 1-38], above 1000 nM.
On to `CC(=O)N1CCC(Nc2cc(C(=O)NC[C@H](O)CN3CCc4sc(N)nc4C3)ccn2)CC1` [Compound 1-34], for which the EC50 is above 1000 nM.
The value for `CC(=O)N1CCC(Nc2cc(C(=O)NC[C@H](O)CN3CCCc4c3cnn4C)ncn2)CC1` [Compound 3-58] was above 1000 nM; that for `Cn1cnc2c1CN(C[C@@H](O)CNC(=O)c1cc(NC3COC3)ncn1)CC2` [Compound 3-26, (S)—N-(2-hydroxy-3-(3-methyl-6,7-dihydro-3H-imidazo[4,5-c]pyridin-5(4H)-yl)propyl)-6-(oxetan-3-ylamino)pyrimidine-4-carboxamide] was above 1000 nM.
The value for `O=C(NC[C@H](O)CN1CCc2sccc2C1)c1cc(NC2COC2)ncn1` [Compound 1-1, (S)—N-(3-(6,7-dihydrothieno[3,2-c]pyridin-5(4H)-yl)-2-hydroxypropyl)-6-(oxetan-3-ylamino)pyrimidine-4-carboxamide] was below 100 nM.
